Measurements taken from ChEMBL document CHEMBL3046079, “Synthesis, herbicidal activity, and mode of action of IR 5790” (J Agric Food Chem, 2001).

Legend:
[1] = target: T1, Putative protoporphyrinogen IX oxidase (Cucumis sativus) (UniProt C6L817); experiment: Inhibition of protoporphyrin oxidase in Cucumis sativus (cucumber) cotyledon disc assessed as light-dependent membrane damage at 100 uM incubated for 20 hr in dark followed by 8 hr in presence of light measured as electrolyte leakage relative to control
T1 sequence (whole entry): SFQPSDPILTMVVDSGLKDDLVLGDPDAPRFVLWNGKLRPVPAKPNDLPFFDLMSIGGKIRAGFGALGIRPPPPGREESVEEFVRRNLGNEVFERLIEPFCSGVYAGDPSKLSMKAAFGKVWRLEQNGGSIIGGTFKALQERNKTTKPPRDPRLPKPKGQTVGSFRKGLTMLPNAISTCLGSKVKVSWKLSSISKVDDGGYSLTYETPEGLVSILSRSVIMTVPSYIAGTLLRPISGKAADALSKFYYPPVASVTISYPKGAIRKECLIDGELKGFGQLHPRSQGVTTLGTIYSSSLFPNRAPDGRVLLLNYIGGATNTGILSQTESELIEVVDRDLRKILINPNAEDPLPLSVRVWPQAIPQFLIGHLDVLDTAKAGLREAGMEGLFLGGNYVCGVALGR

[2] = test system: Solanum nigrum; experiment: Pre-emergence herbicidal activity against Solanum nigrum (black nightshade) assessed as injury at 50 g/ha applied at 24 hr post-sowing measured after 28 days relative to control; assay type: functional
[3] = test system: Beta vulgaris; experiment: Phytotoxicity against Beta vulgaris assessed as injury at 150 g/ha applied as pre-emergent treatment at 24 hr post-sowing measured after 28 days relative to control; assay type: organism-based; conditions: in vivo, other, 672 h
[4] = test system: Triticum aestivum; experiment: Phytotoxicity against Triticum aestivum (wheat) assessed as injury at 150 g/ha applied as pre-emergent treatment at 24 hr post-sowing measured after 28 days relative to control; assay type: organism-based; conditions: in vivo, other, 672 h
[5] = test system: Panicum dichotomiflorum; experiment: Pre-emergence herbicidal activity against Panicum dichotomiflorum assessed as injury at 150 g/ha applied at 24 hr post-sowing measured after 28 days relative to control; assay type: functional
[6] = test system: Digitaria sanguinalis; experiment: Pre-emergence herbicidal activity against Digitaria sanguinalis (hairy crabgrass) assessed as injury at 150 g/ha applied at 24 hr post-sowing measured after 28 days relative to control; assay type: functional
[7] = test system: Setaria viridis; experiment: Pre-emergence herbicidal activity against Setaria viridis (green foxtail) assessed as injury at 50 g/ha applied at 24 hr post-sowing measured after 28 days relative to control; assay type: functional
[8] = test system: Calystegia sepium; experiment: Post-emergence herbicidal activity against Calystegia sepium assessed as injury at 150 g/ha applied at 15 days post-sowing measured after 15 days relative to control; assay type: functional
[9] = test system: Capsella bursa-pastoris; experiment: Post-emergence herbicidal activity against Capsella bursa-pastoris assessed as injury at 150 g/ha applied at 15 days post-sowing measured after 15 days relative to control; assay type: functional
[10] = test system: Chenopodium album; experiment: Post-emergence herbicidal activity against Chenopodium album assessed as injury at 150 g/ha applied at 15 days post-sowing measured after 15 days relative to control; assay type: functional
[11] = test system: Veronica persica; experiment: Post-emergence herbicidal activity against Veronica persica assessed as injury at 150 g/ha applied at 15 days post-sowing measured after 15 days relative to control; assay type: functional
[12] = test system: Galium aparine; experiment: Post-emergence herbicidal activity against Galium aparine assessed as injury at 150 g/ha applied at 15 days post-sowing measured after 15 days relative to control; assay type: functional
[13] = test system: Geranium dissectum; experiment: Post-emergence herbicidal activity against Geranium dissectum assessed as injury at 150 g/ha applied at 15 days post-sowing measured after 15 days relative to control; assay type: functional
[14] = test system: Amaranthus retroflexus; experiment: Post-emergence herbicidal activity against Amaranthus retroflexus assessed as injury at 50 g/ha applied at 15 days post-sowing measured after 15 days relative to control; assay type: functional
[15] = test system: Alopecurus myosuroides; experiment: Post-emergence herbicidal activity against Alopecurus myosuroides assessed as injury at 5 g/ha applied at 15 days post-sowing measured after 15 days relative to control; assay type: functional
[16] = test system: Glycine max; experiment: Phytotoxicity against Glycine max (soybean) assessed as injury at 15 g/ha applied as post-emergent treatment at 15 days post-sowing measured after 15 days relative to control; assay type: organism-based; conditions: in vivo, other, 360 h
[17] = test system: Ipomoea purpurea; experiment: Post-emergence herbicidal activity against Ipomoea purpurea (common morning-glory) assessed as injury at 15 g/ha applied at 15 days post-sowing measured after 15 days relative to control; assay type: functional
[18] = test system: Veronica persica; experiment: Pre-emergence herbicidal activity against Veronica persica assessed as injury at 150 g/ha applied at 24 hr post-sowing measured after 28 days relative to control; assay type: functional
[19] = test system: Portulaca oleracea; experiment: Pre-emergence herbicidal activity against Portulaca oleracea assessed as injury at 150 g/ha applied at 24 hr post-sowing measured after 28 days relative to control; assay type: functional
[20] = test system: Persicaria maculosa; experiment: Pre-emergence herbicidal activity against Persicaria maculosa assessed as injury at 150 g/ha applied at 24 hr post-sowing measured after 28 days relative to control; assay type: functional
[21] = test system: Papaver rhoeas; experiment: Pre-emergence herbicidal activity against Papaver rhoeas assessed as injury at 150 g/ha applied at 24 hr post-sowing measured after 28 days relative to control; assay type: functional
[22] = test system: Galium aparine; experiment: Pre-emergence herbicidal activity against Galium aparine assessed as injury at 150 g/ha applied at 24 hr post-sowing measured after 28 days relative to control; assay type: functional
[23] = test system: Calystegia sepium; experiment: Pre-emergence herbicidal activity against Calystegia sepium assessed as injury at 150 g/ha applied at 24 hr post-sowing measured after 28 days relative to control; assay type: functional
[24] = test system: Zea mays; experiment: Phytotoxicity against Zea mays (maize) assessed as injury at 50 g/ha applied as post-emergent treatment at 15 days post-sowing measured after 15 days relative to control; assay type: organism-based; conditions: in vivo, other, 360 h
[25] = test system: Sorghum bicolor; experiment: Post-emergence herbicidal activity against Sorghum bicolor assessed as injury at 50 g/ha applied at 15 days post-sowing measured after 15 days relative to control; assay type: functional
[26] = test system: Capsella bursa-pastoris; experiment: Pre-emergence herbicidal activity against Capsella bursa-pastoris assessed as injury at 150 g/ha applied at 24 hr post-sowing measured after 28 days relative to control; assay type: functional
[27] = test system: Ammi majus; experiment: Post-emergence herbicidal activity against Amni maius assessed as injury at 15 g/ha applied at 15 days post-sowing measured after 15 days relative to control; assay type: functional
[28] = test system: Beta vulgaris; experiment: Phytotoxicity against Beta vulgaris assessed as injury at 50 g/ha applied as post-emergent treatment at 15 days post-sowing measured after 15 days relative to control; assay type: organism-based; conditions: in vivo, other, 360 h
[29] = test system: Echinochloa crus-galli; experiment: Post-emergence herbicidal activity against Echinochloa crus-galli (barnyard grass) assessed as injury at 50 g/ha applied at 15 days post-sowing measured after 15 days relative to control; assay type: functional
[30] = test system: Stellaria media; experiment: Post-emergence herbicidal activity against Stellaria media assessed as injury at 50 g/ha applied at 15 days post-sowing measured after 15 days relative to control; assay type: functional
[31] = test system: Persicaria maculosa; experiment: Post-emergence herbicidal activity against Persicaria maculosa assessed as injury at 50 g/ha applied at 15 days post-sowing measured after 15 days relative to control; assay type: functional
[32] = test system: Galium aparine; experiment: Post-emergence herbicidal activity against Galium aparine assessed as injury at 50 g/ha applied at 15 days post-sowing measured after 15 days relative to control; assay type: functional
[33] = test system: Chenopodium album; experiment: Post-emergence herbicidal activity against Chenopodium album assessed as injury at 50 g/ha applied at 15 days post-sowing measured after 15 days relative to control; assay type: functional

Compound `C#CCOc1cc(-n2nc(C(C)(C)C)sc2=O)c(Cl)cc1Cl` has an inhibition [1] of 90%, an Activity [2] of 30% and an Activity [3] of 10%. The Activity [4] was 0%, the Activity [5] was 90% and the Activity [6] was 90%. It also gave an Activity [7] of 30%, an Activity [8] of 90% and an Activity [9] of 50%. It also gave an Activity [10] of 90%, an Activity [11] of 50% and an Activity [12] of 50%. The Activity [13] was 50%, the Activity [14] was 50% and the Activity [15] was 0%. The Activity [16] was 0%, the Activity [17] was 90% and the Activity [18] was 50%. The Activity [19] was 90%, the Activity [20] was 50% and the Activity [21] was 90%. For the same compound, the Activity [22] was 0%, the Activity [23] was 0% and the Activity [24] was 0%. It also gave an Activity [25] of 0%, an Activity [26] of 90% and an Activity [27] of 0%. For the same compound, the Activity [28] was 50%, the Activity [29] was 0% and the Activity [30] was 0%. For the same compound, the Activity [31] was 90%, the Activity [32] was 30% and the Activity [33] was 90%.
